Results taken from patent US20230286968A1, “ARYLOXAZOLO SPIRAL RING DERIVATIVES FOR THE TREATMENT AND PROPHYLAXIS OF HEPATITIS B VIRUS INFECTION” (Hoffmann-La Roche Inc., priority 2020, published 2023).
Read-outs that look alike come from different tables or passages of the source.

How the values were obtained:
[1] = Cytotoxicity in PHH natural infection assay (Cell Counting Kit-8); assay type: cell-based; settings: HBV-infected primary human hepatocytes, CCK8
Method: (§1) Detailed procedures regarding primary human hepatocyte (PHH) HBV natural infection assay are described as below. One tube of frozen PHH (10 million cells) is thawed in 37° C. water bath and then transferred to 20 mL of PHH thawing medium (Sigma, InVitroGRO HT Medium, Cat. S03319) with gently mixing. The cells were then centrifuged at […] for 5 min, the supernatant was discarded and the tube was refilled with 25 mL of PHH plating medium (Sigma, InVitroGRO CP Medium, Cat. S03317). The tube was shaken very gently to re-suspend all cells, and then 50 μL of cells were transferred to each well 384-well collagen I coated plate with appropriate liquid handling equipment, e.g. Integra VIAFLO384 or Agilent Bravo. The cells were then cultured for 24 hours in a cell incubator. For HBV infection, after PHH attachment on the culture plate, the plating medium was removed and replenished with PHH culture medium containing HBV virus. The PHH culture medium was prepared with Dulbecco's Modified Eagle Medium (DMEM)/F12 (1:1 in volume ratio) containing 10% fetal bovine serum (Gibco, Cat. 10099141), 5 ng/mL human epidermal growth factor (Gibco, Cat.PHG0311L), 20 ng/mL dexamethasone (Sigma, Cat.D4902-100 mg), 250 ng/mL human recombinant insulin (Gibco, Cat.41400045) and 100 U/mL penicillin. HBV virus at 200 genome equivalent (GE) per cell with 4% PEG8000 (Sigma, Cat.P1458) containing culture medium were added to the PHH culture medium for infection. The cells were then cultured for 24 hours in cell incubator. Then the cell culture supernatant was removed. The HBV-infected PHH were cultured with sandwich culture method with PHH culture medium containing […] and 0.25 mg/mL matrix gel for 72 hours. The supernatant was then refreshed with PHH culture medium containing different concentrations of testing compounds for two times with 72-hour interval. At the end of treatment, the supernatant was collected for viral markers measurements, including HBsAg, HBeAg, HBV DNA and cytotoxicity. HBsAg and HBeAg were detected using alphalisa method using their specific antibodies. For HBV DNA detection, HBV DNA Quantitative Fluorescence Diagnostic Kit (Sansure Biotech Inc.) was used following the manufacture's protocol. Cytotoxicity was determined using Cell Counting Kit-8 (CCK8, Dojindo Molecular Technologies, Inc.).

HBeAg = assay: PHH natural infection assay, HBeAg (alphalisa); assay type: cell-based, HBV
Method: as §1
(§2) The compounds of the present invention were tested for their capacity to inhibit HBsAg and HBeAg as described herein.

HBsAg = assay: PHH natural infection assay, HBsAg (alphalisa); assay type: cell-based, HBV
Method: as §1, §2

[2] = Hepatitis B virus, Hepatocyte, read-out: HBeAg IC50, HBV-infected primary human hepatocytes, supernatant, alphalisa
[3] = Hepatitis B virus, Hepatocyte, read-out: HBsAg IC50, HBV-infected primary human hepatocytes, supernatant, alphalisa

CCS(=O)(=O)N1CCC(C(=O)NC2CC3(C2)CC(c2nc4cc(Cl)ccc4o2)C3)C1 (stereo not drawn) [Example 70, N-[6-(5-chloro-1,3-benzoxazol-2-yl)spiro[3.3]heptan-2-yl]-1-ethylsulfonyl-pyrrolidine-3-carboxamide]
CC50 at 144 h [1]: > 10 µM | IC50 (HBeAg; [2]): 3.62 µM | IC50 (HBsAg; [3]): 5.42 µM

CCNC(=O)NC1CC2(C1)CC(c1nc3cc(Cl)ccc3o1)C2 (stereo not drawn) [Example 59, 1-[6-(5-chloro-1,3-benzoxazol-2-yl)spiro[3.3]heptan-2-yl]-3-ethyl-urea]
CC50 at 144 h [1]: > 100 µM | IC50 (HBeAg; [2]): 3.94 µM | IC50 (HBsAg; [3]): 8.6 µM

CN1CC(C(=O)NC2CC3(C2)CC(c2nc4cc(Cl)ccc4o2)C3)CC1=O (stereo not drawn) [Example 30, N-[6-(5-chloro-1,3-benzoxazol-2-yl)spiro[3.3]heptan-2-yl]-1-methyl-5-oxo-pyrrolidine-3-carboxamide]
CC50 at 144 h [1]: > 100 µM | IC50 (HBeAg; [2]): 2.65 µM | IC50 (HBsAg; [3]): 3.89 µM

O=C(NC1CC2(C1)CC(c1nc3ncccc3o1)C2)C1CCS(=O)(=O)C1 (stereo not drawn) [Example 41, N-(6-oxazolo[4,5-b]pyridin-2-ylspiro[3.3]heptan-2-yl)-1,1-dioxo-thiolane-3-carboxamide]
CC50 at 144 h [1]: > 100 µM | IC50 (HBeAg; [2]): 2.32 µM | IC50 (HBsAg; [3]): 5.28 µM

O=C(NC1CC2(C1)CC(c1nc3cc(Cl)ccc3o1)C2)C1CC(C(F)(F)F)C1 (stereo not drawn) [Example 29, N-[6-(5-chloro-1,3-benzoxazol-2-yl)spiro[3.3]heptan-2-yl]-3-(trifluoromethyl)cyclobutanecarboxamide]
CC50 at 144 h [1]: > 100 µM | IC50 (HBeAg; [2]): 3.82 µM | IC50 (HBsAg; [3]): 4.67 µM

O=C(NC1CC2(C1)CC(c1nc3cc(Cl)ccc3o1)C2)C1CS(=O)(=O)C1 (stereo not drawn) [Example 49, N-[6-(5-chloro-1,3-benzoxazol-2-yl)spiro[3.3]heptan-2-yl]-1,1-dioxo-thietane-3-carboxamide]
CC50 at 144 h [1]: 96.1 µM | IC50 (HBeAg; [2]): 2.61 µM | IC50 (HBsAg; [3]): 3.27 µM

O=C(CCCS(=O)(=O)NC(=O)C1CCC1)NC1CC2(C1)CC(c1nc3cc(Cl)ccc3o1)C2 (stereo not drawn) [Example 81, N-[4-[[6-(5-chloro-1,3-benzoxazol-2-yl)spiro[3.3]heptan-2-yl]amino]-4-oxo-butyl]sulfonylcyclobutanecarboxamide]
CC50 at 144 h [1]: > 10 µM | IC50 (HBeAg; [2]): 6.06 µM | IC50 (HBsAg; [3]): 4.6 µM

CC(C)(C)C(=O)NC1CC2(C1)CC(c1nc3cc(Cl)ccc3o1)C2 (stereo not drawn) [Example 27, N-[6-(5-chloro-1,3-benzoxazol-2-yl)spiro[3.3]heptan-2-yl]-2,2-dimethyl-propanamide]
CC50 at 144 h [1]: > 100 µM | IC50 (HBeAg; [2]): 9.75 µM | IC50 (HBsAg; [3]): 9.77 µM

O=C(NC1CC2(C1)CC(c1nc3cc(Cl)ccc3o1)C2)c1ccnc(S(=O)(=O)CC2CC2)c1 (stereo not drawn) [Example 100, N-[6-(5-chloro-1,3-benzoxazol-2-yl)spiro[3.3]heptan-2-yl]-2-(cyclopropylmethylsulfonyl)pyridine-4-carboxamide]
CC50 at 144 h [1]: > 10 µM | IC50 (HBeAg; [2]): 0.44 µM | IC50 (HBsAg; [3]): 0.59 µM

CC(C)(C)N1CC(C(=O)NC2CC3(C2)CC(c2nc4cc(Cl)ccc4o2)C3)CC1=O (stereo not drawn) [Example 31, 1-tert-butyl-N-[6-(5-chloro-1,3-benzoxazol-2-yl)spiro[3.3]heptan-2-yl]-5-oxo-pyrrolidine-3-carboxamide]
CC50 at 144 h [1]: > 100 µM | IC50 (HBeAg; [2]): 5.24 µM | IC50 (HBsAg; [3]): 7.87 µM

N=C(NO)c1cc(C(=O)NC2CC3(C2)CC(c2nc4cc(Cl)ccc4o2)C3)ccn1 (stereo not drawn) [Example 95, N-[6-(5-chloro-1,3-benzoxazol-2-yl)spiro[3.3]heptan-2-yl]-2-(N-hydroxycarbamimidoyl)pyridine-4-carboxamide]
CC50 at 144 h [1]: > 10 µM | IC50 (HBeAg; [2]): 6.25 µM | IC50 (HBsAg; [3]): 8.25 µM

O=C(NC1CC2(C1)CC(c1nc3cc(Cl)ccc3o1)C2)C1CCN(S(=O)(=O)C2CC2)C1 (stereo not drawn) [Example 72, N-[6-(5-chloro-1,3-benzoxazol-2-yl)spiro[3.3]heptan-2-yl]-1-cyclopropylsulfonyl-pyrrolidine-3-carboxamide]
CC50 at 144 h [1]: > 10 µM | IC50 (HBeAg; [2]): 4.43 µM | IC50 (HBsAg; [3]): 9.56 µM

O=C(CN1CCCCS1(=O)=O)NC1CC2(C1)CC(c1nc3cc(Cl)ccc3o1)C2 (stereo not drawn) [Example 56, N-[6-(5-chloro-1,3-benzoxazol-2-yl)spiro[3.3]heptan-2-yl]-2-(1,1-dioxothiazinan-2-yl)acetamide]
CC50 at 144 h [1]: > 100 µM | IC50 (HBeAg; [2]): 2.06 µM | IC50 (HBsAg; [3]): 2.29 µM

O=C(NC1CC2(C1)CC(c1nc3cc(Cl)ccc3o1)C2)N1CCC2(COC2)C1 (stereo not drawn) [Example 67, N-[6-(5-chloro-1,3-benzoxazol-2-yl)spiro[3.3]heptan-2-yl]-2-oxa-7-azaspiro[3.4]octane-7-carboxamide]
CC50 at 144 h [1]: > 100 µM | IC50 (HBeAg; [2]): 3.76 µM | IC50 (HBsAg; [3]): 3.95 µM

O=C(NC1CC2(C1)CC(c1nc3cc(Cl)ccc3o1)C2)c1ccnc(NC2CC2)c1 (stereo not drawn) [Example 10, N-[6-(5-chloro-1,3-benzoxazol-2-yl)spiro[3.3]heptan-2-yl]-2-(cyclopropylamino)pyridine-4-carboxamide]
CC50 at 144 h [1]: > 10 µM | IC50 (HBeAg; [2]): 3.92 µM | IC50 (HBsAg; [3]): 3.77 µM

NS(=O)(=O)CCCC(=O)NC1CC2(C1)CC(c1nc3cc(Cl)ccc3o1)C2 (stereo not drawn) [Example 39, N-[6-(5-chloro-1,3-benzoxazol-2-yl)spiro[3.3]heptan-2-yl]-4-sulfamoyl-butanamide]
CC50 at 144 h [1]: > 10 µM | IC50 (HBeAg; [2]): 4.8 µM | IC50 (HBsAg; [3]): 5.98 µM

Cc1ccc(S(=O)(=O)N2CC(CC(=O)NC3CC4(C3)CC(c3nc5cc(Cl)ccc5o3)C4)C2)cc1 (stereo not drawn) [Example 78, N-[6-(5-chloro-1,3-benzoxazol-2-yl)spiro[3.3]heptan-2-yl]-2-[1-(p-tolylsulfonyl)azetidin-3-yl]acetamide]
CC50 at 144 h [1]: > 10 µM | IC50 (HBeAg; [2]): 4.37 µM | IC50 (HBsAg; [3]): 4.77 µM

O=C(NC1CCOC1)NC1CC2(C1)CC(c1nc3cc(Cl)ccc3o1)C2 (stereo not drawn) [Example 65, 1-[6-(5-chloro-1,3-benzoxazol-2-yl)spiro[3.3]heptan-2-yl]-3-tetrahydrofuran-3-yl-urea]
CC50 at 144 h [1]: > 100 µM | IC50 (HBeAg; [2]): 3.4 µM | IC50 (HBsAg; [3]): 3.94 µM

[H][C@@]1(C(=O)N[C@]2([H])C[C@@]3(C2)C[C@@]([H])(c2nc4cc(Cl)ccc4o2)C3)CC(=O)N(C)C1 (single isomer, unassigned) [Example 94c]
CC50 at 144 h [1]: > 100 µM | IC50 (HBeAg; [2]): 0.61 µM | IC50 (HBsAg; [3]): 1.24 µM

O=C(NC1CC2(C1)CC(c1nc3cc(Cl)ccc3o1)C2)C1CN(Cc2ccccc2)S(=O)(=O)C1 (stereo not drawn) [Example 44, 2-benzyl-N-[6-(5-chloro-1,3-benzoxazol-2-yl)spiro[3.3]heptan-2-yl]-1,1-dioxo-1,2-thiazolidine-4-carboxamide]
CC50 at 144 h [1]: > 10 µM | IC50 (HBeAg; [2]): 4.6 µM | IC50 (HBsAg; [3]): 4.44 µM

O=C(NC1CC2(C1)CC(c1nc3cc(Cl)ccc3o1)C2)c1ccnc(S(=O)(=O)C2COC2)c1 (stereo not drawn) [Example 25, N-[6-(5-chloro-1,3-benzoxazol-2-yl)spiro[3.3]heptan-2-yl]-2-(oxetan-3-ylsulfonyl)pyridine-4-carboxamide]
CC50 at 144 h [1]: > 10 µM | IC50 (HBeAg; [2]): 2.53 µM | IC50 (HBsAg; [3]): 4.18 µM

[H][C@]1(NC(=O)c2ccnc(S(C)(=O)=O)c2)C[C@@]2(C1)C[C@]([H])(c1nc3cc(Cl)ccc3o1)C2 (single isomer, unassigned) [Example 87-b, (Sa)—N-[6-(5-chloro-1,3-benzoxazol-2-yl)spiro[3.3]heptan-2-yl]-2-methylsulfonyl-pyridine-4-carboxamide]
CC50 at 144 h [1]: > 10 µM | IC50 (HBeAg; read-out: HBeAg IC50, HBV-infected primary human hepatocytes, supernatant, alphalisa): 3.29 µM | IC50 (HBsAg; read-out: HBsAg IC50, HBV-infected primary human hepatocytes, supernatant, alphalisa): 3.68 µM
